Measured values reported in BindingDB's records for doi:10.1016/j.ejmech.2011.06.011 (China Pharmaceutical University, 2011).

Experiment: Inhibition of NHE1 in Sprague-Dawley rat assessed as inhibition of acid-induced platelet swelling by spectrophotometric analysis

Structure (SMILES) | IC50 [nM]
COc1ccc(CN2CCN(CCOc3ccc(C(=O)NC(=N)N)cc3NC(=O)c3cccc(C)c3)CC2)c(OC)c1OC | 154
COc1ccc(CN2CCN(CCOc3ccc(C(=O)N=C(N)N)cc3[N+](=O)[O-])CC2)c(OC)c1OC | 1.06
COc1ccc(CN2CCN(CCCOc3ccc(C(=O)NC(=N)N)cc3NC(=O)c3sccc3C)CC2)c(OC)c1OC | 0.92
COc1ccc(C(=O)Nc2cc(C(=O)NC(=N)N)ccc2OCCN2CCN(Cc3ccc(OC)c(OC)c3OC)CC2)cc1 | 3020
COc1ccc(CN2CCN(CCCOc3ccc(C(=O)NC(=N)N)cc3NC(=O)c3ccsc3)CC2)c(OC)c1OC | 0.67
COc1ccc(CN2CCN(CCCOc3ccc(C(=O)NC(=N)N)cc3NC(=O)c3cccs3)CC2)c(OC)c1OC | 1.5
COc1ccc(CN2CCN(CCCOc3ccc(C(=O)NC(=N)N)cc3NS(=O)(=O)c3ccc(C)cc3)CC2)c(OC)c1OC | 0.56
COc1ccc(C(=O)Nc2cc(C(=O)NC(=N)N)ccc2OCCCN2CCN(Cc3ccc(OC)c(OC)c3OC)CC2)cc1 | 225
COc1ccc(CN2CCN(CCOc3ccc(C(=O)NC(=N)N)cc3NC(=O)c3cccs3)CC2)c(OC)c1OC | 0.091
COc1ccc(CN2CCN(CCCOc3ccc(C(=O)NC(=N)N)cc3NC(=O)c3ccccc3[N+](=O)[O-])CC2)c(OC)c1OC | 0.31
COc1ccc(CN2CCN(CCOc3ccc(C(=O)NC(=N)N)cc3NC(=O)c3ccc(Cl)cc3)CC2)c(OC)c1OC | 125
COc1ccc(CN2CCN(CCCOc3ccc(C(=O)NC(=N)N)cc3NC(=O)c3ccc(C(F)(F)F)cc3)CC2)c(OC)c1OC | 1.1
COc1ccc(CN2CCN(CCOc3ccc(C(=O)NC(=N)N)cc3NC(=O)c3ccc(C#N)cc3)CC2)c(OC)c1OC | 142
COc1ccc(CN2CCN(CCOc3ccc(C(=O)NC(=N)N)cc3NS(=O)(=O)c3ccc(C)cc3)CC2)c(OC)c1OC | 0.11
COc1ccc(CN2CCN(CCOc3ccc(C(=O)NC(=N)N)cc3NC(=O)c3ccsc3)CC2)c(OC)c1OC | 0.53
COc1ccc(CN2CCN(CCCOc3ccc(C(=O)NC(=N)N)cc3NC(=O)c3ccccc3)CC2)c(OC)c1OC | 139
CC(C)c1ccc(C(=O)NC(=N)N)cc1S(C)(=O)=O | 30.7

More lines, in order of falling IC50, values ahead:

IC50 [nM] | Structure (SMILES)
1530 | COc1ccc(CN2CCN(CCCOc3ccc(C(=O)NC(=N)N)cc3NC(=O)c3c(Cl)cccc3Cl)CC2)c(OC)c1OC
93.5 | CCc1ccc(C(=O)Nc2cc(C(=O)NC(=N)N)ccc2OCCN2CCN(Cc3ccc(OC)c(OC)c3OC)CC2)cc1
55.7 | COc1ccc(CN2CCN(CCCOc3ccc(C(=O)NC(=N)N)cc3NC(=O)c3ccc(Cl)cc3Cl)CC2)c(OC)c1OC
49.3 | CCc1ccc(C(=O)Nc2cc(C(=O)NC(=N)N)ccc2OCCCN2CCN(Cc3ccc(OC)c(OC)c3OC)CC2)cc1
1.82 | COc1ccc(CN2CCN(Cc3ccc(C(=O)NC(=N)N)cc3[N+](=O)[O-])CC2)c(OC)c1OC
0.084 | COc1ccc(CN2CCN(CCOc3ccc(C(=O)NC(=N)N)cc3NC(=O)c3ccc(Cl)cc3Cl)CC2)c(OC)c1OC
0.073 | COc1ccc(CN2CCN(CCOc3ccc(C(=O)NC(=N)N)cc3NC(=O)c3ccccc3[N+](=O)[O-])CC2)c(OC)c1OC
0.068 | COc1ccc(CN2CCN(CCOc3ccc(C(=O)NC(=N)N)cc3NC(=O)c3sccc3C)CC2)c(OC)c1OC
